Assay results reported in patent publication US20080031967A1, “Compositions, products and methods for controlling weight in a mammal” (priority 2005, published 2008).

Columns and labels:
[1] = test system: primary rat adipocytes; assay: thermogenesis assay: oxygen consumption by adipocytes (oxygen probe); format: cell-based; settings: fatty acid oxidation inhibitors
Protocol: Thermogenesis was measured using an oxygen probe to monitor oxygen consumption by the adipocytes as they oxidize fatty acids. This assay was developed in primary rat adipocytes (isolated as above) using a YSI 5300 monitor equipped with oxygen-sensitive electrodes in an 8-chamber air tight apparatus. […] Since oxygen consumption can be induced by both the Kreb's cycle (glucose metabolism) and β-oxidation (fatty acid metabolism), fatty acid oxidation inhibitors were used to test whether the increase in oxygen consumption is indeed induced by fatty acid oxidation. Valproic acid inhibits the entry of fatty acid into the mitochondria and 4-pentenoic acid inhibits β-ketothiolase (the enzyme in the last step of β-oxidation). […] It has been discovered that the use of the above-listed thermogenic agents in accordance with the present invention results in the effective modulation of thermogenesis in mammals. By “effective,” it is meant that administration of the thermogenic agents of the present invention results in a 10 to 15% increase in thermogenic activity in the in vitro oxygen consumption assay. Without wishing to be bound by theory, it is believed that the thermogenic agents of the present invention function by increasing the rate at which fatty acids are transported into the mitochondria and oxidized in the cell.

[2] = test system: primary rat adipocytes; settings: validation compound, stated as known; cited from earlier work
[3] = test system: isolated rat adipocytes; settings: dissolved oxygen monitor; cited from earlier work

Row | Molecule | effect on oxygen consumption induced by norepinephrine [1] | further results
1 | C=CCCC(=O)O [4-pentenoic acid] | inhibit oxygen consumption induced by norepinephrine | –
2 | CCCC(CCC)C(=O)O [Valproic acid] | inhibit oxygen consumption induced by norepinephrine | –
3 | NC[C@H](O)c1ccc(O)c(O)c1 [norepinephrine] | – | effect on rate of fatty acid oxidation and oxygen consumption [2]: increase the rate of fatty acid oxidation and oxygen consumption
4 | leptin: adipocyte-derived hormone | – | effect on beta-oxidation in adipocytes [3]: stimulates beta-oxidation
